From patent US20080165354A1, “Method and Apparatus For Dissolving Solid Matter in Liquid” (priority 2005, published 2008)
Entries after “also recorded” stand apart in the source; their conditions may differ.

Key:
[1] = Flow-through dissolution test, concentration of the dissolution medium by in-line UV-Vis spectrophotometer; type: physicochemical; conditions: same setup as Example 1, flow rate 20 ml/min
Protocol: (§1) Dissolution testing was carried out employing simultaneous liquid/solid phase analysis. A modified flow-through dissolution method was used, in which • the concentration of the medium was measured with a UV-Vis spectrophotometer and • a simultaneous solid state analysis on the dissolving tablet in a flow-through chamber was performed using an in situ Raman spectroscopic analysis. The dissolution testing setup consisted of the flow-through cell, liquid reservoir (V=500 ml) and a peristaltic pump that circulates the medium (pump speed=70 rpm 9,3 ml/min). The dissolution medium used in the experiments was distilled water (room temperature).

[2] = In situ Raman spectroscopic solid state analysis of the dissolving tablet in a flow-through chamber; type: physicochemical; conditions: same setup as Example 1, flow rate 20 ml/min
Protocol: as §1, with “temperature). The Raman spectra were collected using a Raman spectrometer (Control Development, South Bend, Ind., USA) with a diode laser (Starbright 785 S, Torsana Laser Technologies, Skodsborg, Denmark) at 785 nm. A fiber optic sampling probe (InPhotonics, Norwood, MA, USA) was used. The spectral range measured was 2200-100 cm^−1 at a resolution of 5 cm^−1.” for “temperature).”

O=C1CN(/N=C/c2ccc([N+](=O)[O-])o2)C(=O)N1 [NF anhydrate, Nitrofurantoin]
changes of the dissolution rate [1]: more complicated when compared to changes in the dissolution rate of TP | solid phase transformation during dissolution [2]: solid phase transformation of NF anhydrate to NF monohydrate (II); also recorded: an order of magnitude slower than that of TP anhydrate
